The values that follow come from patent US11028079B2 (ConverGene LLC, priority 2015, dated 2021).

Structures are written as SMILES. pKd: −log10 of the molar value.

The target in this test is T1, BRD4 bromodomains (Homo sapiens, UniProt O60885).
T1 construct: fused on or other part: T7 phage capsid protein (phage-display fusion; the phage DNA is read out by qPCR)
Nature of the test: BROMOscan bromodomain competition binding assay (DiscoveRx). The conditions noted are these: Kd from 11 compound concentrations ranging from 0 to 10 μM, read-out: BROMOscan Relative Activity. A digest of the protocol: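 Compounds in 0.1% DMSO/0.9% MEG competed with a solid-phase acetylated peptide for T7 phage-fused BRD4 bromodomains, with the retained bromodomain measured by qPCR.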
On to `Cc1nn(C)cc1CNC(=O)c1cc(NCc2cccc(Cl)c2)c2cc(-c3c(C)noc3C)ccc2n1` [Example 230, 4-((3-chlorobenzyl)amino)-N-((1,3-dimethyl-1H-pyrazol-4-yl)methyl)-6-(3,5-dimethylisoxazol-4-yl)quinoline-2-carboxamide], for which the pKd is greater than 6.30. The same measure for `Cc1noc(C)c1-c1ccc2nc(N3CCN(C(=O)CN)CC3)nc(NCc3cncc(Cl)c3)c2c1` [Example 131, 2-amino-1-(4-(4-(((5-chloropyridin-3-yl)methyl)amino)-6-(3,5-dimethylisoxazol-4-yl)quinazolin-2-yl)piperazin-1-yl)ethanone]: greater than 6.30; for `Cc1cncc(CNC(=O)c2nc(NCc3cccc(Cl)c3)c3cc(-c4c(C)noc4C)ccc3n2)c1` [Example 193, 4-((3-chlorobenzyl)amino)-6-(3,5-dimethylisoxazol-4-yl)-N-((5-methylpyridin-3-yl)methyl)quinazoline-2-carboxamide]: greater than 6.30; for `Cc1noc(C)c1-c1ccc2nc(N3CCN(CCN(C)C)CC3)nc(N3CCCC3c3ccccc3)c2c1` (stereo not shown) [Example 174, 2-(4-(6-(3,5-dimethylisoxazol-4-yl)-4-(2-phenylpyrrolidin-1-yl)quinazolin-2-yl)piperazin-1-yl)-N,N-dimethylethanamine]: greater than 6.30.

In the case of `Cc1noc(C)c1-c1ccc2nc(N3CCN(CC(=O)N(C)C)CC3)nc(NCc3cccc(Cl)c3)c2c1` [Example 52, 2-(4-(4-((3-chlorobenzyl)amino)-6-(3,5-dimethylisoxazol-4-yl)quinazolin-2-yl)piperazin-1-yl)-N,N-dimethylacetamide], the pKd was greater than 6.30. Then `Cc1noc(C)c1-c1ccc2nc(N3CCN(CCN(C)C)CC3)nc(NC3(c4cccc(Cl)c4)CC3)c2c1` [Example 170, N-(1-(3-chlorophenyl)cyclopropyl)-2-(4-(2-(dimethylamino)ethyl)piperazin-1-yl)-6-(3,5-dimethylisoxazol-4-yl)quinazolin-4-amine], with greater than 6.30; and `Cc1noc(C)c1-c1ccc2nc(C(=O)NC3CCS(=O)(=O)CC3)nc(N3CCOC[C@@H]3c3ccccc3)c2c1` [Example 275, (S)-6-(3,5-dimethylisoxazol-4-yl)-N-(1,1-dioxidotetrahydro-2H-thiopyran-4-yl)-4-(3-phenylmorpholino)quinazoline-2-carboxamide], with greater than 6.30; and `Cc1noc(C)c1-c1ccc2ncnc(N3CCC(C(=O)O)CC3)c2c1` [Example 261, 1-(6-(3,5-dimethylisoxazol-4-yl)quinazolin-4-yl)piperidine-4-carboxylic Acid], with 5.30 to 6.30. Then `Cc1noc(C)c1-c1ccc2nc(C(=O)Nc3cncc(F)c3)nc(NCc3cccc(Cl)c3)c2c1` [Example 221, 4-((3-chlorobenzyl)amino)-6-(3,5-dimethylisoxazol-4-yl)-N-(5-fluoropyridin-3-yl)quinazoline-2-carboxamide], with 5.30 to 6.30; and `Cn1cc(-c2ccc3nc(Cl)nc(NCc4cncc(Cl)c4)c3c2)ccc1=O` [Example 113, 5-(2-chloro-4-(((5-chloropyridin-3-yl)methyl)amino)quinazolin-6-yl)-1-methylpyridin-2(1H)-one], with less than 5.30; and `Cc1noc(C)c1-c1ccc2nc(C(=O)NCc3cncn3C)nc(N3CCOC[C@@H]3c3ccccc3)c2c1` [Example 279, (S)-6-(3,5-dimethylisoxazol-4-yl)-N-((1-methyl-1H-imidazol-5-yl)methyl)-4-(3-phenylmorpholino)quinazoline-2-carboxamide], with greater than 6.30. In the case of `Cc1noc(C)c1-c1ccc2nc(N3CCN(C(=O)CN(C)C)CC3)nc(NCc3cccc(Cl)c3)c2c1` [Example 37, 1-(4-(4-((3-chlorobenzyl)amino)-6-(3,5-dimethylisoxazol-4-yl)quinazolin-2-yl)piperazin-1-yl)-2-(dimethylamino)ethanone], the pKd is greater than 6.30. Then `Cn1cc(-c2ccc3nc(-c4cnn(CC(C)(C)O)c4)nc(NCc4cccc(Cl)c4)c3c2)ccc1=O` [Example 103, 5-(4-((3-chlorobenzyl)amino)-2-(1-(2-hydroxy-2-methylpropyl)-1H-pyrazol-4-yl)quinazolin-6-yl)-1-methylpyridin-2(1H)-one], with greater than 6.30.

In the case of `CNC(=O)CN1CCN(c2nc(N3CCOC[C@@H]3c3ccccc3)c3cc(-c4c(C)noc4C)ccc3n2)CC1` [Example 298], the pKd was greater than 6.30. The same measure for `Cc1noc(C)c1-c1ccc2nc(N3CCC4(CCN(C)C4=O)CC3)nc(N3CCOC[C@@H]3c3ccccc3)c2c1` [Example 320, (S)-8-(6-(3,5-dimethylisoxazol-4-yl)-4-(3-phenylmorpholino)quinazolin-2-yl)-2-methyl-2,8-diazaspiro[4.5]decan-1-one]: greater than 6.30; for `CC(=O)N1CCC(n2cc(-c3nc(N4CCOC[C@@H]4c4ccccc4)c4cc(-c5c(C)noc5C)ccc4n3)cn2)CC1` [Example 327, (S)-1-(4-(4-(6-(3,5-dimethylisoxazol-4-yl)-4-(3-phenylmorpholino)quinazolin-2-yl)-1H-pyrazol-1-yl)piperidin-1-yl)ethan-1-one]: greater than 6.30. Regarding `Cc1noc(C)c1-c1ccc2nc(N3CCc4cnn(C)c4C3)nc(N3CCOC[C@@H]3c3ccccc3)c2c1` [Example 318, (S)-4-(6-(3,5-dimethylisoxazol-4-yl)-2-(1-methyl-1,4,5,7-tetrahydro-6H-pyrazolo[3,4-c]pyridin-6-yl)quinazolin-4-yl)-3-phenylmorpholine], the pKd was greater than 6.30. The same measure for `Cc1noc(C)c1-c1ccc2cc(N3CCN(CCN(C)C)CC3)nc(NCc3cccc(Cl)c3)c2c1` [Example 43, N-(3-chlorobenzyl)-3-(4-(2-(dimethylamino)ethyl)piperazin-1-yl)-7-(3,5-dimethylisoxazol-4-yl)isoquinolin-1-amine]: 5.30 to 6.30; for `CNC(=O)Cn1cc(-c2nc(NCc3cccc(Cl)c3)c3cc(-c4ccc(=O)n(C)c4)ccc3n2)cn1` [Example 102, 2-(4-(4-((3-chlorobenzyl)amino)-6-(1-methyl-6-oxo-1,6-dihydropyridin-3-yl)quinazolin-2-yl)-1H-pyrazol-1-yl)-N-methylacetamide]: greater than 6.30; for `Cc1noc(C)c1-c1ccc2nc(C(=O)NCc3cc(Cl)ccn3)nc(NCc3cccc(Cl)c3)c2c1` [Example 188, 4-((3-chlorobenzyl)amino)-N-((4-chloropyridin-2-yl)methyl)-6-(3,5-dimethylisoxazol-4-yl)quinazoline-2-carboxamide]: greater than 6.30. For `Cc1noc(C)c1-c1ccc2cc(N3CCN(CCO)CC3)nc(NCc3cccc(Cl)c3)c2c1` [Example 44, 2-(4-(1-((3-chlorobenzyl)amino)-7-(3,5-dimethylisoxazol-4-yl)isoquinolin-3-yl)piperazin-1-yl)ethanol], the pKd is 5.30 to 6.30. As to `Cc1noc(C)c1-c1ccc2nc(C(=O)NCc3cccnc3)nc(NCc3cccc(Cl)c3)c2c1` [Example 189, 4-((3-chlorobenzyl)amino)-6-(3,5-dimethylisoxazol-4-yl)-N-(pyridin-3-ylmethyl)quinazoline-2-carboxamide], the pKd was greater than 6.30. `Cc1noc(C)c1-c1ccc2nc(N(C)CCN(C)C)nc(NCc3cccc(Cl)c3)c2c1` [Example 22, N4-(3-chlorobenzyl)-N2-(2-(dimethylamino)ethyl)-6-(3,5-dimethylisoxazol-4-yl)-N2-methylquinazoline-2,4-diamine]: the pKd is greater than 6.30.

For `Cc1noc(C)c1-c1ccc2nc(-c3c(C)noc3C)nc(NCc3cccs3)c2c1` [Example 69, 2,6-bis(3,5-dimethylisoxazol-4-yl)-N-(thiophen-2-ylmethyl)quinazolin-4-amine], the pKd was 5.30 to 6.30. Then `Cc1noc(C)c1-c1ccc2nc(N3CCN(CCC(C)C)CC3)nc(NCc3cccc(Cl)c3)c2c1` [Example 21, N-(3-chlorobenzyl)-6-(3,5-dimethylisoxazol-4-yl)-2-(4-isopentylpiperazin-1-yl)quinazolin-4-amine], with 5.30 to 6.30. Turning to `Cn1cc(-c2ccc3nc(-c4cnn(CC(N)=O)c4)nc(NCc4cncc(Cl)c4)c3c2)ccc1=O` [Example 145, 2-(4-(4-(((5-chloropyridin-3-yl)methyl)amino)-6-(1-methyl-6-oxo-1,6-dihydropyridin-3-yl)quinazolin-2-yl)-1H-pyrazol-1-yl)acetamide], the pKd is 5.30 to 6.30. The same measure for `Cc1noc(C)c1-c1ccc2nc(Cl)nc(Nc3ccc(Cl)cc3)c2c1` [Example 151, 2-chloro-N-(4-chlorophenyl)-6-(3,5-dimethylisoxazol-4-yl)quinazolin-4-amine]: less than 5.30.

Take `Cc1noc(C)c1-c1ccc2nc(N3CCN(C(=O)c4cnn(C)c4)CC3)nc(N3CCOC[C@@H]3c3ccccc3)c2c1` [Example 300, (S)-(4-(6-(3,5-dimethylisoxazol-4-yl)-4-(3-phenylmorpholino)quinazolin-2-yl)piperazin-1-yl)(1-methyl-1H-pyrazol-4-yl)methanone]: the pKd was greater than 6.30. In the case of `CN(C)CCN1CCN(c2nc(NCc3cncc(Cl)c3)c3cc(-c4ccc(=O)n(C)c4)ccc3n2)CC1` [Example 124, 5-(4-(((5-chloropyridin-3-yl)methyl)amino)-2-(4-(2-(dimethylamino)ethyl)piperazin-1-yl)quinazolin-6-yl)-1-methylpyridin-2(1H)-one], the pKd is greater than 6.30.

In the case of `CN(C)CCN1CCN(c2nc(NCc3cccc(Cl)c3)c3cc(-c4ccn(C)c(=O)c4)ccc3n2)CC1` [Example 116, 4-(4-((3-chlorobenzyl)amino)-2-(4-(2-(dimethylamino)ethyl)piperazin-1-yl)quinazolin-6-yl)-1-methylpyridin-2(1H)-one], the pKd is less than 5.30. Then `Cc1noc(C)c1-c1ccc2nc(C(=O)NCC3CN(C)C3)cc(NCc3cccc(Cl)c3)c2c1` [Example 231, 4-((3-chlorobenzyl)amino)-6-(3,5-dimethylisoxazol-4-yl)-N-((1-methylazetidin-3-yl)methyl)quinoline-2-carboxamide], with greater than 6.30.
